In patent publication US20260165949A1, “COMPOSITION CONTAINING N-NONYLDEOXYNOJIRIMYCIN FOR SUPPRESSION, ALLEVIATION, PALLIATION, OR TREATMENT OF SKIN ITCHING” (CHA UNIVERSITY INDUSTRY-ACADEMIC COOPERATION FOUNDATION, priority 2022, published 2026):

Experiments:
[1] = tested on: IL-6 release in HaCaT cells; test: IL-6 release induced by TNF-α/IFN-γ stimulation in HaCaT cells (ELISA); format: cell-based; conditions: various concentrations; TNF-α and IFN-γ 10 ng/ml each, 24 hours; FIG. 4
Procedure: (§1) Epidermal cells (HaCaT cells) were purchased from Thermo Fisher Scientific (USA). HaCaT cells were cultured in a DMEM medium (Dulbecco's Modified Eagle's medium (high glucose), Hyclone, USA) containing 10% fetal bovine serum (FBS) and 1% penicillin/streptomycin at 37° C. in a 5% CO2 incubator.
(§2) In order to evaluate the inhibitory effects against IL-6, CCL17, and CCL22 release induced by TNF-α and IFN-γ stimulation in HaCaT cells, an epidermal cell model for the itching associated with the skin barrier, we used a IL-6 ELISA kit (Abcam, UK), a CCL17 ELISA kit (R&D Systems, USA), and a CCL22 ELISA kit (R&D Systems, USA). HaCaT cells were seeded at 1×10^6 cells/well in each well of a coated 6-well plate for cell culture and cultured in a DMEM medium containing 10% FBS and 1% antibiotics (penicillin/streptomycin). After 24 hours, the existing medium was removed. The cells were washed with PBS and a DMEM medium without FBS was added thereto. After N-nonyldeoxynojirimycin was treated at various concentrations, the cells were cultured for 1 hour at 37° C. in a 5% CO2 incubator. The cells were treated with TNF-α and IFN-γ at 10 ng/ml each and then incubated for an additional 24 hours. The cell culture mixture was collected in a 1.5 ml tube and then centrifuged at 2,000 rcf. […] After completion of the reaction, the absorbance was measured at 450 nm using a microplate reader. […]

hepatic glycogenolysis = conditions: in vivo; cited from earlier work
RBL-2H3 cells = test: β-hexosaminidase release induced by PMA/A23187 stimulation (degranulation) in RBL-2H3 cells; format: cell-based
Procedure: as §1, with “Mast” for “Epidermal”, “(RBL-2H3” for “(HaCaT”, “ATCC (American Type Culture Collection, USA). RBL-2H3” for “Thermo Fisher Scientific (USA). HaCaT”
In order to evaluate the inhibitory effects against degranulation of RBL-2H3 cells, β-hexosaminidase release was measured for various compounds. Specifically, the cultured RBL-2H3 cells were seeded at 2×10^5 cells/well in each well of a 24-well plate for cell culture and cultured in a DMEM medium containing 10% FBS and 1% penicillin/streptomycin. After 24 hours, the existing medium was removed. The cells were washed twice with an extracellular buffer (5 mM KCl, 119 mM NaCl, 25 mM PIPES, 0.4 mM MgCl2, 1 mM CaCl2), 40 mM NaOH, 5.6 mM glucose, 0.1% BSA, pH 7.2) and the medium was replaced with the extracellular buffer. […] After the reaction was terminated by adding a stop solution (0.1 M carbonate buffer, pH 10), the absorbance was measured at 405 nm using a microplate reader.
The β-hexosaminidase release was measured in the same manner as in Example 2, except that N-nonyldeoxynojirimycin was treated at various concentrations (1 to 200 μM).

[2] = tested on: PGE2 release in RBL-2H3 cells; test: PGE2 release induced by PMA/A23187 stimulation in RBL-2H3 cells (ELISA); format: cell-based; conditions: 1 to 40 μM; 50 nM PMA and 1 μM A23187 for 30 minutes; FIG. 3
Procedure: as §1, with “Mast” for “Epidermal”, “(RBL-2H3” for “(HaCaT”, “ATCC (American Type Culture Collection, USA). RBL-2H3” for “Thermo Fisher Scientific (USA). HaCaT”
In order to evaluate the inhibitory effects against […] (PGE2) release of RBL-2H3 cells according to the treatment of N-nonyldeoxynojirimycin, an enzyme-linked immunosorbent assay (ELISA) was performed using a PGE2 ELISA kit (R&D Systems, USA). Specifically, the cultured RBL-2H3 cells were seeded at 1×10^6 cells/well in each well of a 6-well plate for cell culture and cultured in the same manner as in Example 2. After 24 hours, the existing medium was removed. The cells were washed with PBS and a DMEM medium without FBS was added thereto. After N-nonyldeoxynojirimycin was treated at various concentrations (1 to 40 μM), the cells were cultured for 1 hour at 37° C. in a 5% CO2 incubator. The cells were treated with 50 nM of PMA and 1 μM of A23187 and incubated for an additional 30 minutes. The cell culture mixture was collected in a 1.5 ml tube and then centrifuged at 2,000 rcf. The supernatant thereof was subject to the ELISA analysis using a PGE2 ELISA kit (R&D Systems, USA). After completion of the reaction, the absorbance was measured at 450 nm using a microplate reader.

[3] = tested on: CCL17 release in HaCaT cells; test: CCL17 release induced by TNF-α/IFN-γ stimulation in HaCaT cells (ELISA); format: cell-based; conditions: various concentrations; TNF-α and IFN-γ 10 ng/ml each, 24 hours; FIG. 5
Procedure: as §1, §2

glucosidase = conditions: cited from earlier work
[4] = tested on: CCL22 release in HaCaT cells; test: CCL22 release induced by TNF-α/IFN-γ stimulation in HaCaT cells (ELISA); format: cell-based; conditions: various concentrations; TNF-α and IFN-γ 10 ng/ml each, 24 hours; FIG. 6
Procedure: as §1, §2

CCCCCCCCCN1C[C@H](O)[C@@H](O)[C@H](O)[C@H]1CO [N-nonyldeoxynojirimycin]
inhibitory effect against IL-6 release [1]: inhibited the IL-6, CCL17, and CCL22 releases
inhibition of hepatic glycogenolysis (hepatic glycogenolysis): known to inhibit hepatic glycogenolysis in vivo
inhibitory effect against β-hexosaminidase release according to treatment concentration (RBL-2H3 cells; 1 to 200 μM, PMA/A23187 stimulation, FIG. 2): inhibits the β-hexosaminidase release in a concentration-dependent manner
inhibitory effect against β-hexosaminidase release (RBL-2H3 cells; test material 20 μM, 1 hour, then 50 nM PMA and 1 μM A23187 for 30 minutes, FIG. 1): remarkably inhibited the β-hexosaminidase release compared to other alkaloid analogues
inhibitory effect against PGE2 release [2]: inhibited the PGE2 release in a concentration-dependent manner
inhibitory effect against CCL17 release [3]: inhibited the IL-6, CCL17, and CCL22 releases
glucosidase inhibitory activity (glucosidase): has a glucosidase inhibitory activity
inhibitory effect against CCL22 release [4]: inhibited the IL-6, CCL17, and CCL22 releases
